In patent US20240166602A1, “SUBSTITUTED DIARYL COMPOUND AS WELL AS PREPARATION METHOD AND APPLICATION THEREOF” (SHANDONG FIRST MEDICAL UNIV & SHANDONG ACADEMY OF MEDICAL …, priority 2021, published 2024):
Like-named read-outs stand apart in the source and are kept apart here.

Tests used:
Format in all cases: cell-based
[1] = tested on: human ovarian cancer (SKOV3) cells; assay: MTT tumor cell growth inhibition, human ovarian cancer (SKOV3); details: SKOV3, 48 h culture, MTT method, read-out: IC50 value of target compound against cancer cell proliferation, SKOV3
Experimental: (§1) Dissolve CHJ compound series with dimethyl sultbxide (DMSO, final concentration 0.4%), and use RPMI-1640 culture medium containing 15% fetal calf serum to prepare 1 mg/mL solution for future use. During drug administration in groups, use the culture medium to dilute it to the concentration needed.
(§2) Cell lines: human lung cancer (A549), Inman ovarian cancer (SKOV3), human melanoma (A375) and human colon cancer (LOVO) cell lines, all purchased from the Cell Bank of the Chinese Academy of Sciences, DMEM containing 15% fetal bovine serum (High Glucose) culture medium, placed in a 37° C., 5% CO2 incubator.
(§3) MTT is an oxidizing yellow dye with the chemical name of 3-(4,5-dimethyl-2-thiazolyl)-2,5-diphenyl-2-H-tetrazoliumbromide tetrazole bromide. The MMT method, also known as the MTT colorimetric method, can test the survival and growth of cells. The method is simple and easily accessible and often used to screet the substance with cytotoxic activity. The basic principle of testing, is that succinodehydrogenase can reduce exogenous MIT so that MTT is reduced to blueviolet crystal Formazan insoluble to water. The crystal deposits in cells. The succinodehydrogenase exists in the mitochondria of living cells, not in the dead cells. Therefore, the chromogenic reaction can only take place in living cells. Then, dissolve the blueviolet crystal Formazan contained in cells with dimethyl sulfoxide (DMSO), and measure its absorbancy with microplate reader so that the count of living cells is reflected indirectly. Within the scope of certain cell count, the amount of blueviolet crystal Formazan formed is positively correlated to the count of living cells.
(§4) Human lung cancer (A549), human ovarian cancer (SKOV3), human melanoma (A375) and human colon cancer (LOVO) ceilsare all adherent. Based on the growth rate of tumor cells, wash the adherent tumor cells in the logarithmic phase and digest them in 0.25% EDTA pancreatic enzyme. Adjust the cell count to 1×10^5/mL and inoculate the cells in 96-pore plate, each pore containing 100 μL. Culture the cells in the 37° C. CO2 incubator, and administer the drug 24 h later. Add pharmaceutical (CJH compound series) of different concentrations to the administration group. Set up 5 dosage groups for each pharmaceutical, respectively 100, 10, 1, 0.1, 0.01 μmol/L. Set up three complex pores for each concentration. Set up blank control, DMSO (0.8%) solvent control and cis-platinum positive control. After 48 h of culture in the 37 ° C. incubator containing 5% CO2, measure the OD value through MTT method and calculate the cell inhibition ratio.
(§5) After 48 h of culture of human lung cancer (A549), human ovarian cancer (SKOV3). human melanoma (A375) and human colon cancer (LOVO) cells, stop it and add 10 μL 0.5% MTT solution to each pore. Place it in the CO2 incubator for 4 h. Remove the liquid from each pore, respectively add 0.2 mL DMSO solution, and oscillate it adequately on the table concentrator under low frequency so that the blueviolet crystal Formazan is dissolved adequately. Place it in the microplate reader and record the OD value at the wavelength of […]. Calculate the average OD value of three parallel pores of different concentrations, and calculate the cell inhibition ratio and IC50 of each tested pharmaceutical under different concentrations based on the average.
(§6) Inhibition ratio (%)=[1-tested sample OD/negative control group OD]×100%.

[2] = tested on: human colon cancer (LOVO) cells; assay: MTT tumor cell growth inhibition, human colon cancer (LOVO); details: 48 h culture, MTT method, read-out: IC50 value of target compound against cancer cell proliferation, LOVO
Experimental: as §1, §2, §3, §4, §5, §6

[3] = tested on: human lung cancer (A549) cells; assay: MTT tumor cell growth inhibition, human lung cancer (A549); details: A549, 48 h culture, MTT method, read-out: IC50 value of target compound against cancer cell proliferation, A549
Experimental: as §1, §2, §3, §4, §5, §6

[4] = tested on: human melanoma (A375) cells; assay: MTT tumor cell growth inhibition, human melanoma (A375); details: A375, 48 h culture, MTT method, read-out: IC50 value of target compound against cancer cell proliferation, A375
Experimental: as §1, §2, §3, §4, §5, §6

| SMILES | IC50 ([1]; Homo sapiens, SK-OV-3) [µM] | IC50 ([2]; Homo sapiens) [µM] | IC50 ([3]; Homo sapiens) [µM] | IC50 ([4]; Homo sapiens, A-375) [µM] | IC50 [1] [µM] | IC50 [2] [µM] | IC50 [3] [µM] | IC50 [4] [µM] |
| --- | --- | --- | --- | --- | --- | --- | --- | --- |
| COc1cc(CN(C)CC(O)COc2cc(Cl)cc(Br)c2)ccc1OCCN1CCC(C)CC1 (stereo not shown) [CHJ04034, 1-(3-bromo-5-chlorophenoxy)-3-((3-methoxy-4-(2-(4-methylpiperidin1-yl)ethoxy)benzyl)(methyl)amino)propan-2-ol] | 3.06 ± 1.1 | 1.16 ± 0.94 | 0.86 ± 0.45 | 0.65 ± 0.14 | – | – | – | – |
| COc1cc(CN(C)CC(O)COc2cccc(NC(C)=O)c2)ccc1OCCN1CCC(C)CC1 (stereo not shown) [CHJ04058, N-(3-(2-hydroxy-3((3-methoxy-4-(2-(4-methylpiperidin-1-yl)ethoxy)benzyl)(methyl)amino)propoxy)phenyl)acetamide] | 102 ± 1.48 | 54 ± 2.14 | 245.3 ± 2.4 | 56.21 ± 0.55 | – | – | – | – |
| COc1cc(CN(C)CC(O)COc2ccc(Cl)cc2Cl)ccc1OCCN1CCC(C)CC1 (stereo not shown) [CHJ04059, 1-(2,4-dichlorophenoxy)-3-((3-methoxy-4-(2-(4-methylpiperidin-1-yl)ethoxy)benzyl) (methyl)amino)propan-2-ol] | 3.26 ± 1.21 | 3.92 ± 0.56 | 10.6 ± 3.37 | 3.23 ± 0.49 | – | – | – | – |
| COc1cc(CN(C)CC(O)COc2ccc(C)c(Br)c2)ccc1OCCN1CCCC1 (stereo not shown) [CHJ04064, 1-(3-bromo-4-methylphenoxy)-3-((3-methoxy-4-(2-(pyrrolidin-1-yl)ethoxy)benzyl) (methyl)amino)propan-2-ol] | 17.1 ± 0.24 | 3.55 ± 2.14 | 21.5 ± 3.65 | 9.24 ± 2.65 | – | – | – | – |
| COc1cc(CN(C)CC(O)COc2cc(Cl)cc(Cl)c2)ccc1OCCN1CCCC1 (stereo not shown) [CHJ04066, 1-(3,5-dichlorophenoxy)-3-((3-methoxy-4-(2-(pyrrolidin-1-yl)ethoxy)benzyl)(methyl)amino)propan-2-ol] | 77.1 ± 4.07 | 2.5 ± 0.65 | 29.9 ± 2.45 | 10.3 ± 1.4 | – | – | – | – |
| COc1cc(CN(C)CC(O)COc2ccc(Cl)c(Cl)c2)ccc1OCCN1CCCC1 (stereo not shown) [CHJ04072, 1-(3,4-dichlorophenoxy)-3-((3-methoxy-4-(2-(pyrrolidin-1-yl)ethoxy)benzyl)(methyl)amino)propan-2-ol] | 9.62 ± 4.23 | 5.21 ± 2.31 | 12.5 ± 2.44 | 2.26 ± 0.37 | – | – | – | – |
| COc1cc(CN(C)CC(O)COc2ccccc2C(F)(F)F)ccc1OCCN1CCC(C)CC1 (stereo not shown) [CHJ04082] | 28.5 ± 5.22 | 2.82 ± 1.05 | 22.3 ± 1.98 | 7.51 ± 2.62 | – | – | – | – |
| COc1cc(CN(C)CC(O)COc2ccc(Cl)cc2)ccc1OCCN1CCC(C)CC1 (stereo not shown) [CHJ04083, 1-(4-chlorophenoxy)-3((3-methoxy-4-(2-(4-methylpiperidin-1-yl)ethoxy)benzyl)(methyl)amino)propan-2-ol] | 10.4 ± 1.43 | 1.23 ± 0.17 | 13.3 ± 2.02 | 2.44 ± 1.03 | – | – | – | – |
| COc1ccc(OCC(O)CN(C)Cc2ccc(OCCN3CCC(C)CC3)c(OC)c2)cc1 (stereo not shown) [CHJ04084, 1-((3-methoxy-4-(2-(4-methylpiperidin-1-yl)ethoxy)benzyl)(methyl)amino)-3-(4-methoxyphenoxy)propan-2-ol] | 96.4 ± 2.72 | 7.54 ± 1.02 | 42.7 ± 3.06 | 16.7 ± 2.48 | – | – | – | – |
| COc1cc(CN(C)CC(O)COc2ccccc2Cl)ccc1OCCN1CCC(C)CC1 (stereo not shown) [CHJ04085, 1-(2-chlorophenoxy)-3-((3-methoxy-4-(2-(4-methylpiperidin-1-yl)ethoxy)benzyl) (methyl)amino)propan-2-ol] | 49.2 ± 1.97 | 1.94 ± 0.79 | 28.8 ± 5.12 | 7.32 ± 1.8 | – | – | – | – |
| CCN(CC)CCOc1ccc(CN(C)CC(O)COc2ccccc2C(C)C)cc1OC (stereo not shown) [CHJ04089, 1-((4-(2-(diethylamino)ethoxy)-3-methoxybenzyl)(methyl)amino)-3-(2-isopropylphenoxy)propan-2-ol] | 42.7 ± 2.61 | 49.5 ± 3.54 | 27.8 ± 1.73 | 15 ± 2.37 | – | – | – | – |
| CCN(CC)CCOc1ccc(CN(C)CC(O)COc2cc(C(F)(F)F)ccc2Br)cc1OC (stereo not shown) [CHJ04090, 1-(2-bromo-5-(trifluoromethyl)phenoxy)-3-((4-(2-(diethylamino)ethoxy)-3-methoxybenzyl)(methyl)amino)propan-2-ol] | 36.4 ± 2.17 | 34 ± 2.59 | 35 ± 2.21 | 11.7 ± 2.12 | – | – | – | – |
| CCN(CC)CCOc1ccc(CN(C)CC(O)COc2ccc(Cl)c(Cl)c2)cc1OC (stereo not shown) [CHJ04091, 1-(3,4-dichlorophenoxy)-3-((4-(2-(diethylamino)ethoxy)-3-methoxybenzyl)(methyl)amino)propan-2-ol] | 17.8 ± 3.11 | 10.6 ± 3.2 | 11.1 ± 1.33 | 4.01 ± 3.11 | – | – | – | – |
| CCN(CC)CCOc1ccc(CN(C)CC(O)COc2ccc(F)c(Br)c2)cc1OC (stereo not shown) [CHJ04092, 1-(3-bromo-4-fluorophenoxy)-3-((4-(2-(diethylamino)ethoxy)-3-methoxybenzyl)(methyl)amino)propan-2-ol] | 34.5 ± 2.7 | 47.9 ± 3.43 | 30.2 ± 2.76 | 11.2 ± 1.05 | – | – | – | – |
| CCN(CC)CCOc1ccc(CN(C)CC(O)COc2ccc(Br)c(C(F)(F)F)c2)cc1OC (stereo not shown) [CHJ04093] | 10.2 ± 1.69 | 14.5 ± 2.14 | 20.1 ± 2.01 | 2.6 ± 1.22 | – | – | – | – |
| CCN(CC)CCOc1ccc(CN(C)CC(O)COc2c(Cl)cc(Br)cc2Cl)cc1OC (stereo not shown) [CHJ04094, 1-(4-bromo-2,6-dichlorophenoxy)-3-((4-(2-(diethylamino)ethoxy)-3-methoxybenzyl) (methyl)amino)propan-2-ol] | 15.9 ± 2.11 | 28.5 ± 4.42 | 18.4 ± 3.17 | 2.05 ± 1.01 | – | – | – | – |
| COc1cc(CN(C)CC(O)COc2ccc(Br)c(C(F)(F)F)c2)ccc1OCCn1ccnc1 (stereo not shown) [CHJ04097, 1-((4-(2-(1H-imidazol-1-yl)ethoxy)-3-methoxybenzyl)(methyl)amino)-3-(4-bromo-3-(trifluoromethyl)phenoxy)propari-ol] | 33.6 ± 2.47 | 32.1 ± 3.39 | 24.4 ± 2.78 | 14.8 ± 2.77 | – | – | – | – |
| COc1cc(CN(C)CC(O)COc2cc(C(F)(F)F)ccc2Br)ccc1OCCn1ccnc1 (stereo not shown) [CHJ04099, 1-((4-(2-(1H-imidazol-1yl)ethoxy)-3-methoxybenzyl)(methyl)amino)-3-(2-bromo-5-(trifluoromethyl)phenoxy)propan-2-ol] | 37.4 ± 2.48 | 38.2 ± 2.94 | 23.1 ± 2.58 | 16.2 ± 2.11 | – | – | – | – |
| COc1cc(CN(C)CC(O)COc2ccc(Br)cc2)ccc1OCCn1ccnc1 (stereo not shown) [CHJ05001] | 40.1 ± 3.02 | 49.1 ± 2.71 | 30.7 ± 3.12 | 15.8 ± 1.73 | – | – | – | – |
| COc1cc(CN(C)CC(O)COc2ccc(C)c(Br)c2)ccc1OCCn1ccnc1 (stereo not shown) [CHJ05003, 1-((4-(2-(1H-imidazol-1-yl)ethoxy)03-methoxybenzyl)(methyl)amino)-3-(3-bromo-4-methylphenoxy)propan-2-ol] | 35.1 ± 1.35 | 52.5 ± 1.22 | 34 ± 2.11 | 24.9 ± 1.93 | – | – | – | – |
| CCOc1ccccc1OCC(O)CN(C)Cc1ccc(OCCN2CCC(C)CC2)c(OC)c1 (stereo not shown) [SAMS10] | 21.07 ± 0.18 | 8.48 ± 0.07 | 14.64 ± 0.06 | 27.1 ± 0.66 | – | – | – | – |
| N.N.[Cl][Pt][Cl] [cisplatin, reference compound] | – | – | – | – | 1.91 ± 0.43 | 2.64 ± 1.12 | 4.21 ± 1.31 | 5.91 ± 1.64 |
